Experimental data published in US20250195463A1, “ORGANOMETALLIC COMPLEX, CONTROLLED-RELEASE MULTI-FUNCTIONAL DRUG, PHARMACEUTICAL COMPOSITION, PROCESSES FOR THE PREPARATION THEREOF AND THEIR USE” (FACULDADE DE CIÊNCIAS DA UNIVERSIDADE DE LISBOA, priority 2022, published 2025).
Where two headings read alike, the source gives them in different places.

Columns and labels:
[1] = Stability in organic medium (dimethyl sulfoxide) by UV-Vis spectroscopy; assay type: physicochemical; details: for Relative variation of the maximum absorbance of the π→π* transitions: band 289-300 nm (λmax in column head); for Relative variation of the maximum absorbance of the charge transfer bands: band 357-425 nm (λmax in column head)
Method in brief: (§1)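 UV-Vis spectra (270-900 nm) were recorded at intervals from 0 to 24 h, at room temperature in the dark. Solvents were 100% DMSO, or 5% or 10% DMSO in DMEM depending on complex, at 7.0×10^-5 M to 3.0×10^-4 M.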

[2] = Stability in aqueous medium (dimethyl sulfoxide/Dulbecco's Modified Eagle Medium) by UV-Vis spectroscopy; assay type: physicochemical; details: 5% dimethyl sulfoxide/95% Dulbecco's Modified Eagle Medium; for Relative variation of the maximum absorbance of the π→π* transitions: band 292-296 nm (λmax in column head); for Relative variation of the maximum absorbance of the charge transfer bands: band 358-400 nm (λmax in column head)
Method in brief: as §1

[3] = system: MDA-MB-134-VI (FGFR+); assay: MTT cytotoxicity assay; details: read-out: Cytotoxic activity expressed as IC50; Table 6; MDA-MB-134-VI (FGFR+); 48 h, 37° C.
Method in brief: (§2)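 Cells were exposed continuously for 48 h at 37 °C to compounds at 0.1 to 100 μM. In pH-controlled runs, RuPC1 stock was pre-incubated 48 h at pH 6.8 or 7.4, then tested at 0.1 to 50 μM. Viability was read by MTT (0.5 mg/mL, 3 h) absorbance at 570 nm versus untreated cells, with IC50 fitted.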

[4] = system: SK-BR-3 (FGFR+); assay: MTT cytotoxicity assay; details: read-out: Cytotoxic activity expressed as IC50; Table 6; SK-BR-3 (FGFR+); 48 h, 37° C.
Method in brief: as §2

[5] = system: MCF-7 (FGFR−); assay: MTT cytotoxicity assay; details: read-out: Cytotoxic activity expressed as IC50; Table 6; MCF-7 (FGFR−); 48 h, 37° C.
Method in brief: as §2

[6] = system: MDA-MB-231 (FGFR−); assay: MTT cytotoxicity assay; details: for IC50 range in words: Example 24; for IC50: read-out: Cytotoxic activity expressed as IC50, 48 h, 37° C.
Method in brief: as §2

NNC(=O)C1=C[CH]([Ru-]2([PH](c3ccccc3)(c3ccccc3)c3ccccc3)[n+]3ccccc3-c3cccc[n+]32)C=C1.O=S(=O)([O-])C(F)(F)F (stereo not drawn) [compound 4]
Relative variation of the maximum absorbance of the π→π* transitions ([1]; time 0 h): 0.0% | Relative variation of the maximum absorbance of the charge transfer bands ([1]; time 0 h): 0.0% | Relative variation of the maximum absorbance of the π→π* transitions ([1]; time 0.25 h): 0.3% | Relative variation of the maximum absorbance of the charge transfer bands ([1]; time 0.25 h): 0.0% | Relative variation of the maximum absorbance of the π→π* transitions ([1]; time 0.5 h): 0.3% | Relative variation of the maximum absorbance of the charge transfer bands ([1]; time 0.5 h): −0.1% | Relative variation of the maximum absorbance of the π→π* transitions ([1]; time 0.75 h): 0.3% | Relative variation of the maximum absorbance of the charge transfer bands ([1]; time 0.75 h): −0.2% | Relative variation of the maximum absorbance of the π→π* transitions ([1]; time 1 h): 0.5% | Relative variation of the maximum absorbance of the charge transfer bands ([1]; time 1 h): 0.1% | Relative variation of the maximum absorbance of the π→π* transitions ([1]; time 2 h): 0.4% | Relative variation of the maximum absorbance of the charge transfer bands ([1]; time 2 h): −0.2% | Relative variation of the maximum absorbance of the π→π* transitions ([1]; time 3 h): 0.6% | Relative variation of the maximum absorbance of the charge transfer bands ([1]; time 3 h): 0.2% | Relative variation of the maximum absorbance of the π→π* transitions ([1]; time 4 h): 0.7% | Relative variation of the maximum absorbance of the charge transfer bands ([1]; time 4 h): 0.9% | Relative variation of the maximum absorbance of the π→π* transitions ([1]; time 5 h): −0.3% | Relative variation of the maximum absorbance of the charge transfer bands ([1]; time 5 h): 1.0% | Relative variation of the maximum absorbance of the π→π* transitions ([1]; time 6 h): −0.2% | Relative variation of the maximum absorbance of the charge transfer bands ([1]; time 6 h): 0.6% | Relative variation of the maximum absorbance of the π→π* transitions ([1]; time 24 h): −0.2% | Relative variation of the maximum absorbance of the charge transfer bands ([1]; time 24 h): 1.6% | Relative variation of the maximum absorbance of the π→π* transitions ([2]; time 0 h): 0.0% | Relative variation of the maximum absorbance of the charge transfer bands ([2]; time 0 h): 0.0% | Relative variation of the maximum absorbance of the π→π* transitions ([2]; time 0.25 h): 0.1% | Relative variation of the maximum absorbance of the charge transfer bands ([2]; time 0.25 h): −0.2% | Relative variation of the maximum absorbance of the π→π* transitions ([2]; time 0.5 h): 0.1% | Relative variation of the maximum absorbance of the charge transfer bands ([2]; time 0.5 h): −0.7% | Relative variation of the maximum absorbance of the π→π* transitions ([2]; time 0.75 h): −0.4% | Relative variation of the maximum absorbance of the charge transfer bands ([2]; time 0.75 h): −1.3% | Relative variation of the maximum absorbance of the π→π* transitions ([2]; time 1 h): −0.3% | Relative variation of the maximum absorbance of the charge transfer bands ([2]; time 1 h): −0.9% | Relative variation of the maximum absorbance of the π→π* transitions ([2]; time 2 h): −0.6% | Relative variation of the maximum absorbance of the charge transfer bands ([2]; time 2 h): −0.7% | Relative variation of the maximum absorbance of the π→π* transitions ([2]; time 3 h): −0.9% | Relative variation of the maximum absorbance of the charge transfer bands ([2]; time 3 h): −1.4% | Relative variation of the maximum absorbance of the π→π* transitions ([2]; time 4 h): −1.2% | Relative variation of the maximum absorbance of the charge transfer bands ([2]; time 4 h): −0.7% | Relative variation of the maximum absorbance of the π→π* transitions ([2]; time 5 h): −1.5% | Relative variation of the maximum absorbance of the charge transfer bands ([2]; time 5 h): −2.1% | Relative variation of the maximum absorbance of the π→π* transitions ([2]; time 6 h): −1.7% | Relative variation of the maximum absorbance of the charge transfer bands ([2]; time 6 h): −2.3% | Relative variation of the maximum absorbance of the π→π* transitions ([2]; time 24 h): 0.1% | Relative variation of the maximum absorbance of the charge transfer bands ([2]; time 24 h): 3.0% | IC50 [3]: 7.1 ± 1.3 µM | IC50 [4]: 7.5 ± 1 µM | IC50 [5]: 5.8 ± 0.8 µM | IC50 range in words ([6]; MDA-MB-231): low micromolar range | IC50 ([6]; Table 5, MDA-MB-231): 7.1 µM | IC50 ([6]; Table 6, MDA-MB-231 (FGFR−)): 6.1 ± 1.3 µM

CCC(=O)C1=C[CH]([Ru-]2([PH](c3ccccc3)(c3ccccc3)c3ccccc3)[n+]3ccccc3-c3cccc[n+]32)C=C1.O=S(=O)([O-])C(F)(F)F (stereo not drawn) [compound 8]
Relative variation of the maximum absorbance of the π→π* transitions ([1]; time 0 h): 0.0% | Relative variation of the maximum absorbance of the charge transfer bands ([1]; time 0 h): 0.0% | Relative variation of the maximum absorbance of the π→π* transitions ([1]; time 0.25 h): 0.0% | Relative variation of the maximum absorbance of the charge transfer bands ([1]; time 0.25 h): 0.0% | Relative variation of the maximum absorbance of the π→π* transitions ([1]; time 0.5 h): 0.2% | Relative variation of the maximum absorbance of the charge transfer bands ([1]; time 0.5 h): 0.1% | Relative variation of the maximum absorbance of the π→π* transitions ([1]; time 0.75 h): 0.0% | Relative variation of the maximum absorbance of the charge transfer bands ([1]; time 0.75 h): 0.0% | Relative variation of the maximum absorbance of the π→π* transitions ([1]; time 1 h): 0.1% | Relative variation of the maximum absorbance of the charge transfer bands ([1]; time 1 h): 0.3% | Relative variation of the maximum absorbance of the π→π* transitions ([1]; time 2 h): 0.0% | Relative variation of the maximum absorbance of the charge transfer bands ([1]; time 2 h): 0.2% | Relative variation of the maximum absorbance of the π→π* transitions ([1]; time 3 h): −0.3% | Relative variation of the maximum absorbance of the charge transfer bands ([1]; time 3 h): 0.0% | Relative variation of the maximum absorbance of the π→π* transitions ([1]; time 4 h): −0.1% | Relative variation of the maximum absorbance of the charge transfer bands ([1]; time 4 h): 0.0% | Relative variation of the maximum absorbance of the π→π* transitions ([1]; time 5 h): −0.1% | Relative variation of the maximum absorbance of the charge transfer bands ([1]; time 5 h): −0.3% | Relative variation of the maximum absorbance of the π→π* transitions ([1]; time 6 h): −0.2% | Relative variation of the maximum absorbance of the charge transfer bands ([1]; time 6 h): 0.3% | Relative variation of the maximum absorbance of the π→π* transitions ([1]; time 24 h): −0.2% | Relative variation of the maximum absorbance of the charge transfer bands ([1]; time 24 h): 0.2% | Relative variation of the maximum absorbance of the π→π* transitions ([2]; time 0 h): 0.0% | Relative variation of the maximum absorbance of the charge transfer bands ([2]; time 0 h): 0.0% | Relative variation of the maximum absorbance of the π→π* transitions ([2]; time 0.25 h): −0.1% | Relative variation of the maximum absorbance of the charge transfer bands ([2]; time 0.25 h): −0.3% | Relative variation of the maximum absorbance of the π→π* transitions ([2]; time 0.5 h): −0.2% | Relative variation of the maximum absorbance of the charge transfer bands ([2]; time 0.5 h): −0.6% | Relative variation of the maximum absorbance of the π→π* transitions ([2]; time 0.75 h): 0.0% | Relative variation of the maximum absorbance of the charge transfer bands ([2]; time 0.75 h): −0.7% | Relative variation of the maximum absorbance of the π→π* transitions ([2]; time 1 h): −0.1% | Relative variation of the maximum absorbance of the charge transfer bands ([2]; time 1 h): −0.9% | Relative variation of the maximum absorbance of the π→π* transitions ([2]; time 2 h): 0.0% | Relative variation of the maximum absorbance of the charge transfer bands ([2]; time 2 h): −0.7% | Relative variation of the maximum absorbance of the π→π* transitions ([2]; time 3 h): 0.1% | Relative variation of the maximum absorbance of the charge transfer bands ([2]; time 3 h): −0.6% | Relative variation of the maximum absorbance of the π→π* transitions ([2]; time 4 h): 0.0% | Relative variation of the maximum absorbance of the charge transfer bands ([2]; time 4 h): −0.6% | Relative variation of the maximum absorbance of the π→π* transitions ([2]; time 5 h): 0.1% | Relative variation of the maximum absorbance of the charge transfer bands ([2]; time 5 h): −0.6% | Relative variation of the maximum absorbance of the π→π* transitions ([2]; time 6 h): 0.1% | Relative variation of the maximum absorbance of the charge transfer bands ([2]; time 6 h): −0.5% | Relative variation of the maximum absorbance of the π→π* transitions ([2]; time 24 h): 6.0% | Relative variation of the maximum absorbance of the charge transfer bands ([2]; time 24 h): −0.9% | IC50 range in words ([6]; MDA-MB-231): sub-micromolar range | IC50 ([6]; Table 5, MDA-MB-231): 0.56 µM
